Measured values as given in ChEMBL document CHEMBL2094269, “WEHI/Eskitis Trypanosoma b. brucei screening data”.

Columns and labels:
[1] = DNDI: Cytotoxicity against human MRC-5 lung fibroblast cells.; conditions: IC50
[2] = tested on: Trypanosoma brucei brucei; experiment: microbe, parasite or virus in culture; type: functional, organism-based, STIB 795
Description: DNDI: Inhibition of Human African Trypanosomiasis (HAT), STIB 795, in vitro

SMILES	IC50 [1]	IC50 ([2]; Trypanosoma brucei, STIB 795)	IC50 [2]
CCN(CC)c1ccc(/C=C/C2=[N+](C)c3ccc(C(=O)OC)cc3C2(C)C)cc1	3.86 µM	0.056 µM	
O=C(NCCc1csc(-c2ccc(F)cc2)n1)c1ccc(Br)o1	> 41.7 µM	4.66 µM	
CCN1CCN(C(c2cccnc2)c2cc(Cl)c3cccnc3c2O)CC1 (stereo not drawn)	> 41.7 µM	5.83 µM	
COC(=O)c1ccc(C2N=C(c3cccs3)CC(c3ccccc3O)N2)cc1 (stereo not drawn)	> 41.7 µM	5.51 µM	
CCCOc1cccc(C(=O)Nc2cccc(-c3nc4ncccc4o3)c2C)c1	> 4.17 µM	0.662 µM	
CCOC(=O)CNC(=O)C(Cc1ccccc1)NS(=O)(=O)c1cccs1 (stereo not drawn)	> 41.7 µM	5.51 µM	
CC(C)(C)OC(=O)N1CCC[C@H]1c1nnc(SCc2cccc(Cl)c2)o1	2.87 µM	0.538 µM	
COc1ccc(C(NC(=O)CC(C)C)c2ccc3cccnc3c2O)cc1OC (stereo not drawn)	0.685 µM	0.6 µM	
CCN1/C(=C/C(=C/c2sc3ccccc3[n+]2CC)OC)Sc2ccccc21	2.25 µM	0.524 µM	
O=S(=O)(Nc1ccc(O)c(-c2c(O)ccc3ccccc23)c1)c1cccs1	> 41.7 µM	5 µM	
CN1CCN(c2nc(Nc3ccc(F)cc3)nc(Nc3ccc(F)cc3)n2)CC1	> 41.7 µM	5.11 µM	
CC(C)(C)C(=O)N1N=C(c2ccc(NS(C)(=O)=O)cc2)CC1c1ccco1 (stereo not drawn)	> 20.8 µM	5.6 µM	
CC(O)CN1C(=O)c2ccc3c4c(ccc(c24)C1=O)C(=O)N(CC(C)O)C3=O (stereo not drawn)	> 41.7 µM	5.05 µM	
CC(C)(C)c1cc(C(c2ccccn2)N2CCOCC2)cc(C(C)(C)C)c1O (stereo not drawn)	> 41.7 µM	10.6 µM	
COc1ccccc1C(=O)c1sc(Nc2ccc3c(c2)OCCO3)nc1N	> 1.04 µM	≤ 1.08 µM	
COc1ccccc1C(NC(=O)c1ccccc1)c1ccc2cccnc2c1O (stereo not drawn)	> 10.4 µM	5.68 µM	
Oc1c(/C=N/NC(=S)Nc2cccc(F)c2)cc2c3c1CCCN3CCC2	> 41.7 µM	3.08 µM	
Fc1ccc(C(CCCN2CCN3CCCCC3C2)c2ccc(F)cc2)cc1 (stereo not drawn)	> 41.7 µM	5.31 µM	
O=C(N/N=C/c1c(O)ccc2ccccc12)c1cc(Br)ccc1O	> 4.17 µM	3.77 µM	
Cc1ccc2c(c1)OCC(CC(=O)NCCN(C)C)N2Cc1ccc(F)cc1 (stereo not drawn)	> 4.17 µM	2.2 µM	
CC(C)c1ccc(-c2csc(NC(=O)C3C4CCC(O4)C3C(=O)O)n2)cc1 (stereo not drawn)	> 41.7 µM	1.56 µM	0.879 µM
CC(=O)Nc1ccc(C)cc1S(=O)(=O)NCCn1c(C)nc2ccccc21	> 41.7 µM	4.83 µM	
CCS(=O)(=O)N1CCCc2ccc(NS(=O)(=O)c3cccs3)cc21	> 41.7 µM	0.796 µM	

SMILES	IC50 [1]	IC50 ([2]; Trypanosoma brucei, STIB 795)	IC50 [2]
Cc1c(Br)c(C(=O)N/N=C/c2c(O)ccc3ccccc23)nn1C	> 20.8 µM	≤ 10.4 µM	
COc1ccc(C2(CCNCc3ccc(Cl)cc3)CCOC(C)(C)C2)cc1 (stereo not drawn)	> 41.7 µM	7.61 µM	
O=C1CC(n2nnn(-c3ccc(OC(F)(F)F)cc3)c2=S)C2COC1O2 (stereo not drawn)	> 41.7 µM	4.99 µM	
CCCN1C(=O)C(O)(CC(=O)c2cccnc2)c2cc(Br)ccc21 (stereo not drawn)	> 41.7 µM	0.617 µM	
N#C/C(=C\c1cccn1-c1ccc(S(N)(=O)=O)cc1)c1nc2ccccc2[nH]1	> 41.7 µM	4.99 µM	
CCCCCOc1ccc(NC(=O)C(=O)NC2CC(C)(C)NC(C)(C)C2)cc1	> 41.7 µM	4.86 µM	
Cc1ccc(Cn2cc(CCC(=O)NCCN3CCCC3)c3ccccc32)cc1	> 20.8 µM	3.3 µM	
COc1ccc(/C(N)=N/OC(=O)c2cc(OC)c(OC)cc2OC)cc1OC	> 41.7 µM	0.798 µM	
CN(C)S(=O)(=O)c1ccc(C(=O)Nc2nnc(-c3ccc(F)cc3)o2)cc1	> 41.7 µM	4.94 µM	
COc1ccccc1C(NC(=O)C1CCCCC1)c1ccc2cccnc2c1O (stereo not drawn)	> 41.7 µM	10.9 µM	
CC1(C)CC(=O)c2sc(NC(=O)c3sc4ccccc4c3Cl)nc2C1	> 41.7 µM	0.442 µM	
CCOC(=O)c1ccc(NC(=O)Cn2c(C(F)(F)F)nc3ccccc32)cc1	> 41.7 µM	6.08 µM	7.85 µM
COc1ccccc1C(=O)Nc1ccccc1Sc1cc(C)nc2ncnn12	> 41.7 µM	4.02 µM	
COc1ccccc1C1N=C(c2ccc(Cl)cc2)CC(c2ccccc2O)N1 (stereo not drawn)	> 41.7 µM	5.24 µM	
CN1CCC(=NNC(=O)c2cc(-c3ccc(Cl)cc3)nc3ccccc23)CC1	> 41.7 µM	5.52 µM	
O=c1ccccc2c(/C=C/c3cccc(Cl)c3Cl)nn(-c3ccccc3)c12	> 10.4 µM	5.34 µM	
CC(=O)NC1=C(N2CCN(C(=O)c3ccco3)CC2)C(=O)c2ccccc2C1=O	> 41.7 µM	5.41 µM	5.36 µM
Cc1nc2ncnn2c(Sc2ccccc2NC(=O)c2cccc(F)c2)c1C	> 20.8 µM	1.66 µM	
O=C(CC(Sc1cccc2cccnc12)c1ccc(F)cc1)c1cccs1 (stereo not drawn)	> 20.8 µM	0.516 µM	
COc1ccc(C2=NC3(CCN(C(C)C)CC3)NC(c3ccccc3O)C2)cc1 (stereo not drawn)	> 20.8 µM	1.37 µM	
CCN1/C(=C/C=C/c2sc3c(C)cccc3[n+]2CC)Sc2c(C)cccc21	> 20.8 µM	0.501 µM	
O=C(Nc1ccc(Cl)cc1)O/N=C(/c1ccc(Cl)cc1)N1CCOCC1	> 41.7 µM	4.31 µM	
CCCn1c(=N)n(CC(O)COc2ccc(Cl)cc2Cl)c2ccccc21 (stereo not drawn)	8.79 µM	1.94 µM	

SMILES	IC50 [1]	IC50 ([2]; Trypanosoma brucei, STIB 795)	IC50 [2]
Cc1ccc([N+]2=C3SCCCN3C(O)(c3ccc(Cl)cc3Cl)C2)cc1 (stereo not drawn)	> 4.17 µM	5.21 µM	
CC1CCN(C(c2cc(C(C)(C)C)c(O)c(C(C)(C)C)c2)c2ccccn2)CC1 (stereo not drawn)	> 41.7 µM	5.7 µM	
Oc1c(C(Nc2ccccn2)c2ccc(C(F)(F)F)cc2)ccc2cccnc12 (stereo not drawn)	> 41.7 µM	3.26 µM	
CCc1cccc(-n2nnnc2N2CCN(C(=O)Nc3ccc(F)cc3)CC2)c1	> 41.7 µM	4.16 µM	
CCc1cc(Sc2ccccc2NC(=O)C2CCCCC2)n2nc(C)nc2n1	> 41.7 µM	5.22 µM	
CC(C)(C)c1cc(C(c2ccccc2O)N2CCCCC2)cc(C(C)(C)C)c1O (stereo not drawn)	> 41.7 µM	3.39 µM	4.51 µM
Cc1cccc(C)c1C(OCC1CN(C(C)C)C(C)(C)O1)c1c(C)cccc1C (stereo not drawn)	> 20.8 µM	4.93 µM	
C/C(=N\NC(=O)c1cccc(I)c1)c1ccc(O)cc1O	3.73 µM	1.92 µM	
CCCCNCc1cc(Br)c(OCc2ccc(F)cc2)c(OC)c1	> 41.7 µM	4 µM	
C=CCc1cccc(/C=N/NC(=O)c2cc(-c3ccc4ccccc4c3)n[nH]2)c1O	> 41.7 µM	3 µM	
CC(C)=C1C2CCC1C1C(=O)N(NC(=O)C(C)Oc3ccc(C)c(C)c3)C(=O)C21 (stereo not drawn)	> 41.7 µM	5.39 µM	
COc1ccc(-n2nc(N3CCCC(C(=O)NC4CCCC4)C3)ccc2=O)cc1 (stereo not drawn)	> 41.7 µM	2.28 µM	
CCCc1cc(=O)[nH]c(-n2nc(C)cc2NC(=O)c2ccc(OC)c(OC)c2)n1	> 41.7 µM	5.28 µM	
COCC(=O)N/N=C/c1ccc(SCC(=O)Nc2ccc3ccccc3c2)o1	> 41.7 µM	6.86 µM	
CCCCn1c(=N)n(CC(O)c2ccc(Br)cc2)c2ccccc21 (stereo not drawn)	> 20.8 µM	5.24 µM	5.32 µM
CN(C)CCn1c(=N)n(CC(O)c2ccc(Cl)c(Cl)c2)c2ccccc21 (stereo not drawn)	> 4.17 µM	1.07 µM	
CN(C)CCCn1c(N)c(-c2nc3ccccc3[nH]2)c2nc(C#N)c(C#N)nc21	> 41.7 µM	4.08 µM	
C[N+](C)(C)c1nc(N2CCOCC2)nc(N(c2ccccc2)c2ccccc2)n1	> 41.7 µM	2.51 µM	
COc1ccccc1N1CCN(Cc2cc(Cl)c3cccnc3c2O)CC1	> 4.17 µM	6.05 µM	> 10.4 µM
COCc1cc(CN2CCN(c3ccccc3OC)CC2)c(O)c2ncccc12	1.58 µM	2.31 µM	
CCCC(=O)NC(c1ccccc1Cl)c1cc(Cl)c2cccnc2c1O (stereo not drawn)	> 20.8 µM	1.58 µM	
Cn1c(=N)n(CC(=O)c2cc(C(C)(C)C)c(O)c(C(C)(C)C)c2)c2ccccc21	> 20.8 µM	4.57 µM	2.62 µM
